From ChEMBL document CHEMBL2429866, “New aminoadamantane derivatives with antiproliferative activity” (Med Chem Res, 2013)

How the values were obtained:
[1] = system: NCI-H460; assay: Cytotoxicity against human NCI-H460 cells after 48 hrs by SRB assay; type: functional; conditions: NCI-H460, 48 h
[2] = system: U-251; assay: Cytotoxicity against human U251 cells after 48 hrs by SRB assay; type: functional; conditions: U-251, 48 h
[3] = system: SF-268; assay: Cytotoxicity against human SF268 cells after 48 hrs by SRB assay; type: functional; conditions: SF-268, 48 h
[4] = system: MCF7; assay: Cytotoxicity against human MCF7 cells after 48 hrs by SRB assay; type: functional; conditions: MCF7, 48 h
[5] = system: DU-145; assay: Cytotoxicity against human DU145 cells after 48 hrs by SRB assay; type: functional; conditions: DU-145, 48 h
[6] = system: PC-3; assay: Cytotoxicity against human PC3 cells after 48 hrs by SRB assay; type: functional; conditions: PC-3, 48 h
[7] = system: COLO 205; assay: Cytotoxicity against human COLO205 cells after 48 hrs by SRB assay; type: functional; conditions: COLO 205, 48 h
[8] = Cytotoxicity against human MSC cells after 48 hrs by SRB assay; type: cell-based; conditions: for GI50 at 48 h: MSC cells; for TGI: msc, 48 h
[9] = system: A549; assay: Cytotoxicity against human A549 cells after 48 hrs by SRB assay; type: functional; conditions: A549, 48 h
[10] = Cytotoxicity against human EKVX cells after 48 hrs by SRB assay; type: functional
[11] = Cytotoxicity against human NCI-ADR-RES cells after 48 hrs by SRB assay; type: functional
[12] = system: OVCAR-5; assay: Cytotoxicity against human OVCAR5 cells after 48 hrs by SRB assay; type: functional; conditions: OVCAR-5, 48 h
[13] = system: IGROV-1; assay: Cytotoxicity against human IGROV1 cells after 48 hrs by SRB assay; type: functional; conditions: IGROV-1, 48 h
[14] = system: MDA-MB-231; assay: Cytotoxicity against human MDA-MB-231 cells after 48 hrs by SRB assay; type: functional; conditions: MDA-MB-231, 48 h
[15] = Cytotoxicity against human CAKI cells after 48 hrs by SRB assay; type: functional
[16] = system: HCT-116; assay: Cytotoxicity against human HCT116 cells after 48 hrs by SRB assay; type: functional; conditions: HCT-116, 48 h
[17] = (§1) Cytotoxicity against human NHDF cells after 48 hrs by SRB assay; type: cell-based; conditions: NHDF cells
[18] = system: NHDF; assay: as §1; type: cell-based; conditions: nhdf, 48 h
[19] = system: SK-MEL-28; assay: Cytotoxicity against human SK-MEL-28 cells after 48 hrs by SRB assay; type: functional; conditions: SK-MEL-28, 48 h
[20] = system: DMS-114; assay: Cytotoxicity against human DMS114 cells after 48 hrs by SRB assay; type: functional; conditions: DMS-114, 48 h
[21] = system: HCT-15; assay: Cytotoxicity against human HCT15 cells after 48 hrs by SRB assay; type: functional; conditions: HCT-15, 48 h
[22] = system: LNCaP; assay: Cytotoxicity against human LNCAP cells after 48 hrs by SRB assay; type: functional

SMILES | GI50 [1] | TGI [1] | GI50 [2] | TGI [2] | GI50 [3] | TGI [3] | GI50 [4] | TGI [4] | GI50 [16] | TGI [16] | further results
NC1C2CC3CC(C2)CC1(c1ccccc1)C3 (stereo not drawn) | 100 µM | 100 µM | 100 µM | 100 µM | 100 µM | 100 µM | 69.3 µM | 100 µM |  |  | GI50 [5]: 100 µM; TGI [5]: 100 µM; GI50 [6]: 82.9 µM; TGI [6]: 89.3 µM; GI50 [7]: 84.5 µM; TGI [7]: 100 µM
Cl.NC1C2CC3CC(C2)CC1(Cc1ccccc1)C3 (stereo not drawn) |  |  |  |  | 21 µM | 56.8 µM | 5.5 µM | 9.5 µM | 6.59 µM | 35.8 µM | GI50 at 48 h [8]: 9.55 µM; TGI [8]: 45.56 µM; GI50 [9]: 8.67 µM; TGI [9]: 43.7 µM; GI50 [10]: 6.94 µM; TGI [10]: 29.2 µM; GI50 [11]: 6.7 µM; TGI [11]: 30 µM; GI50 [12]: 8.35 µM; TGI [12]: 37.8 µM; GI50 [13]: 7.6 µM; TGI [13]: 36.5 µM; GI50 [14]: 6.68 µM; TGI [14]: 46.6 µM; GI50 [5]: 6.68 µM; TGI [5]: 29.8 µM; GI50 [15]: 6.54 µM; TGI [15]: 26.8 µM; GI50 [7]: 7.12 µM; TGI [7]: 33.2 µM
Cl.NC1C2CC3CC(C2)CC1(Cc1ccc(F)cc1)C3 (stereo not drawn) | 13.7 µM | 52 µM | 21.8 µM | 50.9 µM | 7.83 µM | 37.4 µM | 4.6 µM | 8.7 µM | 5.6 µM | 17.5 µM | GI50 at 48 h [17]: 17.9 µM; TGI [18]: 52.8 µM; GI50 [19]: 13.2 µM; TGI [19]: 45 µM; GI50 [20]: 9.38 µM; TGI [20]: 50.4 µM; GI50 [11]: 7.4 µM; TGI [11]: 24.4 µM; GI50 [21]: 19.4 µM; TGI [21]: 53.8 µM
COc1ccc(CC23CC4CC(CC(C4)C2N)C3)cc1.Cl (stereo not drawn) | 31.2 µM | 62.4 µM | 31.2 µM | 58 µM | 21.2 µM | 50.7 µM | 7.4 µM | 42.3 µM | 18.5 µM | 52.2 µM | GI50 at 48 h [17]: 27.7 µM; TGI [18]: 58.8 µM; GI50 at 48 h [8]: 24.8 µM; TGI [8]: 56.05 µM; GI50 [19]: 31.8 µM; TGI [19]: 60.7 µM; GI50 [20]: 40.1 µM; TGI [20]: 73.9 µM; GI50 [11]: 29.3 µM; TGI [11]: 55.3 µM; GI50 [21]: 38.8 µM; TGI [21]: 75 µM
c1ccc2c(c1)CNC1C3CC4CC(C3)CC21C4 (stereo not drawn) | 100 µM | 100 µM |  |  | 100 µM | 100 µM | 52 µM | 100 µM | 63.9 µM | 100 µM | 
CN(C)CCNC1C2CC3CC(C2)CC1(Cc1ccccc1)C3 (stereo not drawn) |  |  |  |  | 29.3 µM | 57.1 µM | 25.9 µM | 54.1 µM | 24 µM | 55.9 µM | GI50 [20]: 26.5 µM; TGI [20]: 58.1 µM; GI50 [22]: 24.4 µM; TGI [22]: 54.7 µM; GI50 [7]: 25.4 µM; TGI [7]: 59.9 µM
c1ccc(CC23CC4CC(CC(C4)C2NCCN2CCCCC2)C3)cc1 (stereo not drawn) | 6.32 µM | 32.2 µM |  |  | 13.1 µM | 45.9 µM | 6.75 µM | 33.2 µM | 9.94 µM | 51.7 µM | 
c1ccc(CC23CC4CC(CC(C4)C2NCCN2CCNCC2)C3)cc1 (stereo not drawn) | 7.49 µM | 46.8 µM |  |  | 22.2 µM | 53.6 µM | 21.1 µM | 52.7 µM | 7.02 µM | 50 µM | 
CN(C)CCCNC1C2CC3CC(C2)CC1(Cc1ccccc1)C3 (stereo not drawn) | 5.78 µM | 25.8 µM |  |  | 9.09 µM | 40.9 µM | 9.11 µM | 42.9 µM | 6.76 µM | 34.8 µM | 
c1ccc(CC23CC4CC(CC(C4)C2NCCCN2CCOCC2)C3)cc1 (stereo not drawn) | 50.7 µM | 100 µM |  |  | 56.4 µM | 100 µM | 28.9 µM | 58.5 µM | 44 µM | 100 µM | 
c1ccc(CC23CC4CC(CC(C4)C2NCCCn2ccnc2)C3)cc1 (stereo not drawn) | 31.5 µM | 67.5 µM |  |  | 28.8 µM | 62.8 µM | 27 µM | 56.1 µM | 26.8 µM | 64.7 µM | 
N[C@H]1c2ccccc2C23CC4CC(CC(C4)[C@H]12)C3 (relative stereo) |  |  | 31.2 µM | 56.2 µM |  |  | 32.6 µM | 62.5 µM |  |  | GI50 [22]: 28.5 µM; TGI [22]: 61.2 µM; GI50 [5]: 26.6 µM; TGI [5]: 37.6 µM; GI50 [7]: 35 µM; TGI [7]: 69.9 µM
N[C@@H]1c2ccccc2C23CC4CC(CC(C4)[C@H]12)C3 (relative stereo) |  |  | 33 µM | 56.6 µM |  |  |  |  |  |  | GI50 [5]: 31.4 µM; TGI [5]: 66.1 µM; GI50 [6]: 21.3 µM; TGI [6]: 56.7 µM
COc1cc([C@@H]2c3cc4c(cc3[C@@H](O[C@@H]3O[C@@H]5CO[C@@H](C)O[C@H]5[C@H](O)[C@H]3O)[C@H]3COC(=O)[C@H]23)OCO4)cc(OC)c1O [ETOPOSIDE] |  |  |  |  | 4.21 µM | 92.7 µM |  |  |  |  | 
O=c1[nH]cc(F)c(=O)[nH]1 [FLUOROURACIL] | 5.95 µM | > 100 µM |  |  | 49.2 µM | > 100 µM | 8.4 µM | > 100 µM | 9.51 µM | > 100 µM | 
